# Test results reported in US5597798A, “Taxol and epidermal growth factor used to enhance treatment of ovarian cancer” (The Regents of the University of California, priority 1994, dated 1997).
# Like-named read-outs stand apart in the source and are kept apart here.
# What was measured:
# Experiment in all cases: Colony forming assay, effect of EGF on cisplatin sensitivity
# Assay type in all cases: cell-based, human
# [1] = system: MIA PaCa-2 pancreatic cancer cells
# Text: (§1) The following cell lines were used in these studies: 2008 human ovarian carcinoma (Disaia, et al., Am. J. Obstet. Gynecol. 114:978 (1972)), COLO 316 human ovarian carcinoma (Woods et al., Cancer Res. 39:4449 (1979)), a DDP resistant variant 2008/C13*, derived from the parent 2008 cell line (Andrews, et al., Cancer Res. 45:6250 (1985)), A549 non-small cell lung cancer (Lieber et al., Int. J. Cancer 17:62 (1976)), NCI-H520 squamous cell lung cancer (Brower et al., Cancer Res. 46: 798 (1986)), NCI-H596 adenosquamous lung cancer (Banks-Schlegel et al., Cancer Res. 45: 1187 (1985)), UMC 31 small cell lung cancer cells (Graziano et al., Genes, Chromosomes and Cancer 3: 283 (1991)), GLC4 small cell lung cancer cells (Zijlstra et al., Cancer Res. 47: 1780 (1987)), UMCC10b head and neck cancer cells (Krause et al., Arch. Otolayngol. 107: 703 (1981)), 5637 bladder cancer cells (Fogh et al., J. Natl. Cancer Inst. 58: 209 (1977)), MIA PaCa-2 pancreatic cancer cells (Yunis et al., Int. J. Cancer 19:128 (1977)), Du 145 prostate cancer (Mickey Cancer Res. 37: 4049 (1977)) , COLO 205 colon cancer (Semple et al., Cancer Res. 38:1345 (1978)), KB-3-1 cervix cancer (Akiyama et al., Somat. Cell Mol. Genet. 11: 117 (1985)) , MCF-7 breast cancer (Soule et al., J. Natl. Cancer Inst. 51:1409 (1973)), A431 epidermoid carcinoma of the skin (Giard et al., J. Natl. Cancer Inst. 51: 1417 (1973)) and T-289 melanoma cells (Taetle et al., Cancer (Philadelphia) 60: 1836 (1987)). The human cell line 2008 was established from a patient with a serous cystadenocarcinoma of the ovary. The 8-fold DDP resistant cell line 2008/C13* was generated by 13 monthly selections with […], followed by chronic exposure to stepwise increasing concentrations of DDP, from 0.25 to 5 uM. A resistant subline, designated 2008/C13*5, was obtained by monthly selections with 1 μM DDP. The cells were grown on tissue culture dishes in a humidified incubator at 37° C. and 5% CO2 atmosphere. Cells were grown in either of the following types of media: RPMI 1640, RPMI 1640 plus HITES buffer, DMEM low glucose, or DMEM high glucose supplemented with 5% to 10% heat inactivated fetal calf serum and 2 mM glutamine.
# (§2) Colony forming assays were used to assess the effect of each drug on the sensitivity of various tumor cell lines to cytotoxic agents (Andrews, et al., Chem.-Biol. Interact 65:51-58 (1988)). For assays performed on plastic tissue culture dishes, five ml of suspended cells were plated on 60-mm polystyrene tissue culture dishes (Corning Glass Works, Corning, N.Y.). Cells were allowed to attach overnight, then 10 μl of stock drug solution was added to triplicate plates at each drug concentration. Control plates received diluent alone. After 1 h, the drug-containing medium was aspirated and replaced with drug free medium. Plates were incubated in humidified 5% CO2 air, and after 14 days plates were fixed with methanol and stained with Giemsa. Colonies of over 60 cells were counted macroscopically.
# (§3) The drug containing media was removed and cells were resuspended in 5 ml of complete medium containing 0.36% low melting-temperature agarose at 37° C. The cell suspension was mixed well and then aliquotted at 1 ml per dish in triplicate onto prepared 35 mm dishes containing a basement layer of solidified 1% agarose. The cell-containing layer was allowed to solidify at 4° C. for 10 minutes, and the dishes were incubated at 37° C. in humidified 5% CO2. Colonies greater than 125 um were counted after 5 days.
# (§4) ^a Dose response curves were determined by colony forming assay. Cell
# [2] = system: MCF-7 breast cancer cells
# Text: as §1, §2, §3, §4
# [3] = system: GLC 4 small cell lung cancer cells
# Text: as §1, §2, §3, §4
# [4] = system: COLO 205 colon cancer cells
# Text: as §1, §2, §3, §4
# [5] = system: T-289 malignant melanoma cells
# Text: as §1, §2, §3, §4
# [6] = system: UMSCC 10b head and neck cancer cells
# Text: as §1, §2, §3, §4
# [7] = system: A549 non-small cell lung cancer cells
# Text: as §1, §2, §3, §4
# [8] = system: KB-3-1 cervix cancer cells
# Text: as §1, §2, §3, §4
# [9] = system: UMC 31 small cell lung cancer cells
# Text: as §1, §2, §3, §4
# [10] = system: Du 145 prostate cancer cells
# Text: as §1, §2, §3, §4
# [11] = ratio of IC50 in control and EGF-treated cells
# [12] = read-out: IC50 in absence of EGF, cisplatin 1 h, no EGF
# [13] = read-out: IC50 in presence of EGF, 10 nM EGF and cisplatin concurrently for 1 h
smiles,measurement,setting,value
N.N.[Cl][Pt][Cl] [cisplatin],Dose modifying factor,[1]; [11],1.4
same,IC50,[1]; [12],7.65 µM
same,IC50,[1]; [13],5.53 µM
same,Dose modifying factor,[2]; [11],1.0
same,IC50,[2]; [12],3.82 µM
same,IC50,[2]; [13],3.8 µM
same,Dose modifying factor,[3]; [11],0.7
same,IC50,[3]; [12],12.2 µM
same,IC50,[3]; [13],18.2 µM
same,Dose modifying factor,[4]; [11],1.7
same,IC50,[4]; [12],27.6 µM
same,IC50,[4]; [13],16.5 µM
same,Dose modifying factor,[5]; [11],0.8
same,IC50,[5]; [12],2.02 µM
same,IC50,[5]; [13],2.49 µM
same,Dose modifying factor,[6]; [11],3.8
same,IC50,[6]; [12],6.76 µM
same,IC50,[6]; [13],1.76 µM
same,Dose modifying factor,[7]; [11],2.0
same,IC50,"[7]; read-out: IC50 in absence and presence of EGF (single figure printed), 10 nM EGF and cisplatin concurrently for 1 h",14.5 µM
same,Dose modifying factor,[8]; [11],2.0
same,IC50,[8]; [12],9.71 µM
same,IC50,[8]; [13],4.79 µM
same,Dose modifying factor,[9]; [11],0.8
same,IC50,[9]; [12],5.4 µM
same,IC50,[9]; [13],6.86 µM
same,Dose modifying factor,[10]; [11],1.5
same,IC50,[10]; [12],8.52 µM
same,IC50,[10]; [13],5.52 µM
